For assay [1], the target named is T1, Muscarinic acetylcholine receptor M4 (Homo sapiens, UniProt P08173).
T1 sequence (P08173 whole entry): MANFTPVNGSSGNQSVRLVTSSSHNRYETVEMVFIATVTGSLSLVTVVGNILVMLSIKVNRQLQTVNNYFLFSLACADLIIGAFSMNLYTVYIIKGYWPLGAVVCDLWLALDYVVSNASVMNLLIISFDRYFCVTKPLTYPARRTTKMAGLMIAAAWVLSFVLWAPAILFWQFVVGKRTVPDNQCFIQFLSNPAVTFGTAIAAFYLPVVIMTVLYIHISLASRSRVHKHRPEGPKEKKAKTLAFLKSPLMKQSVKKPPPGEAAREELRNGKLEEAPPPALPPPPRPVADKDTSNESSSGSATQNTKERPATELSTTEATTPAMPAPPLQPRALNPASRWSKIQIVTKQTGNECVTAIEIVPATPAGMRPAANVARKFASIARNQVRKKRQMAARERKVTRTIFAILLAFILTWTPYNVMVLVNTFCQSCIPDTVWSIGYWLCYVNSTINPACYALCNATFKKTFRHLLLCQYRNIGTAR
Nature of the assay: Displacement of [3H]NMS from recombinant human muscarinic M4 receptor expressed in CHOK1 cell membranes after 120 mins by scintillation counting method. (In a radioligand displacement assay an active substance lowers the binding of a labelled ligand.)

In assay [2] the target is T2, Muscarinic acetylcholine receptor M2 (Homo sapiens, UniProt P08172).
T2 sequence (P08172 whole entry): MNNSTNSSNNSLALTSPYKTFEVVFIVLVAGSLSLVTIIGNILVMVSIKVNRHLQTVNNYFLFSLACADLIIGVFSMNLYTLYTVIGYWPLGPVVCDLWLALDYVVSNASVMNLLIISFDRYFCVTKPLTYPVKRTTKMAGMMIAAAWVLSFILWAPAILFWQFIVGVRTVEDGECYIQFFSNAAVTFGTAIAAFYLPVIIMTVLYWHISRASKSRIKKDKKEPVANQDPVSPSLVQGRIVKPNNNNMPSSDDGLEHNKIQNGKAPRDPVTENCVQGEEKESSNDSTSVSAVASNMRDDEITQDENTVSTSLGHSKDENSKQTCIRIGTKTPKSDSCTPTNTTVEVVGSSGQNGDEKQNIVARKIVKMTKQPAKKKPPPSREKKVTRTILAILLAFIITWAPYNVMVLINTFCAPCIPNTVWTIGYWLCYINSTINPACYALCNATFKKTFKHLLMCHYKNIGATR
The assay is described as follows: Displacement of [3H]NMS from recombinant human muscarinic M2 receptor expressed in CHOK1 cell membranes after 120 mins by scintillation counting method.

Assay [3] deals with Muscarinic acetylcholine receptor M3 (Homo sapiens, UniProt P20309). Nature of the assay: Displacement of [3H]NMS from recombinant human muscarinic M3 receptor expressed in CHOK1 cell membranes after 120 mins by scintillation counting method.
Chain of Muscarinic acetylcholine receptor M3 (P20309 whole entry): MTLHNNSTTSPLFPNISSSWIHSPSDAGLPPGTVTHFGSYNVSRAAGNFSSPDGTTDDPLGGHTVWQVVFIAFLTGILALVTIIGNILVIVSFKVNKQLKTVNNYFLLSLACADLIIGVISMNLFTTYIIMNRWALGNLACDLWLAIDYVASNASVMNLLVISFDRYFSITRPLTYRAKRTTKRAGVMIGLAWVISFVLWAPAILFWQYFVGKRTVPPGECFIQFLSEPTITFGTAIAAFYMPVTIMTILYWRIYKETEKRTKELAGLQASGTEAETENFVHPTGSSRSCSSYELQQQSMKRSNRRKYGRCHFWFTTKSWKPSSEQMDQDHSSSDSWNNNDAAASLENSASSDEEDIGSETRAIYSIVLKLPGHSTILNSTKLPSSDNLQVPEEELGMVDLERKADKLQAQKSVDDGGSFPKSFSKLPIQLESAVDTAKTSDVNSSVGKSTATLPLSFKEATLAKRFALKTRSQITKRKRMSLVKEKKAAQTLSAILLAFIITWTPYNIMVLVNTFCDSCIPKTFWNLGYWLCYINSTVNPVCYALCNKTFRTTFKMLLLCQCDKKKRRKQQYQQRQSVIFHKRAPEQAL
Assay [4] has as its target T3, Muscarinic acetylcholine receptor M5 (Homo sapiens, UniProt P08912).
T3 sequence (P08912 whole entry): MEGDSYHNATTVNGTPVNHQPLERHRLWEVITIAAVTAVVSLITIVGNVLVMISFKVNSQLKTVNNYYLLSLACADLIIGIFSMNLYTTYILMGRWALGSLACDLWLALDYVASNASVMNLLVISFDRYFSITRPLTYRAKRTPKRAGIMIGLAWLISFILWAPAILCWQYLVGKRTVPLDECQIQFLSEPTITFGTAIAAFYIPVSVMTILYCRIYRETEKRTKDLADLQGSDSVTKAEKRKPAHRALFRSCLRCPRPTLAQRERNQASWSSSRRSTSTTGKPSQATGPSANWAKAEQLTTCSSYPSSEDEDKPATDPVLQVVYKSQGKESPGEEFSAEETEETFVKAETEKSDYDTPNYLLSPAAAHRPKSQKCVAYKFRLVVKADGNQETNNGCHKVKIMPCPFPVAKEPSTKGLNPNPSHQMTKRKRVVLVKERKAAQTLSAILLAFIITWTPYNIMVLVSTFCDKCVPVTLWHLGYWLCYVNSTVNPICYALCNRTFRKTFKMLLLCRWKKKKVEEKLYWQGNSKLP
The assay is described as follows: Displacement of [3H]NMS from recombinant human muscarinic M5 receptor expressed in CHOK1 cell membranes after 120 mins by scintillation counting method.

Assay [5] has as its target T4, Muscarinic acetylcholine receptor M1 (Homo sapiens, UniProt P11229).
T4 sequence (P11229 whole entry): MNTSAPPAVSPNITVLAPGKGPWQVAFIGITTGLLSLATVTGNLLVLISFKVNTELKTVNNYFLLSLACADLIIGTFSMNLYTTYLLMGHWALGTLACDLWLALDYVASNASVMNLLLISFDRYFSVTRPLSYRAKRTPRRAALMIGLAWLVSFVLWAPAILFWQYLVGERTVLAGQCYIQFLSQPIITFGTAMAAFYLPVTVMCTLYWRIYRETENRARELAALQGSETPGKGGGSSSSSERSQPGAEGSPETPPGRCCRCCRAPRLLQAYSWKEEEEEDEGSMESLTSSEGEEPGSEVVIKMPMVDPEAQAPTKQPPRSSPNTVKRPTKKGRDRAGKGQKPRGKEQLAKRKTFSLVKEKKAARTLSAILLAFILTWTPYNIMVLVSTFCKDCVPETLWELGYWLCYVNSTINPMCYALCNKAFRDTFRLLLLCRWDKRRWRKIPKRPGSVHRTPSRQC
Nature of the assay: Displacement of [3H]NMS from recombinant human muscarinic M1 receptor expressed in CHOK1 cell membranes after 120 mins by scintillation counting method.

For orientation: Ki means the equilibrium dissociation constant of an inhibitor or competing ligand from its target. As for `c1ccc(C2(c3ccccc3)COC[C@@H](CO[C@@H]3CN4CCC3CC4)O2)cc1`, the Ki in assay [1] is 100 nM; in assay [2], 61.7 nM; in assay [3], 105 nM; in assay [4] it was 112 nM; in assay [5], 55 nM.
The corresponding values for `c1ccc(C2(c3ccccc3)COC[C@H](CO[C@H]3CN4CCC3CC4)O2)cc1` are 22.9 nM, 57.5 nM, 43.7 nM, 45.7 nM and 8.91 nM.
Take `c1ccc(C2(c3ccccc3)COC[C@H](CO[C@@H]3CN4CCC3CC4)O2)cc1`: the Ki in assay [1] is 11.5 nM; in assay [2], 33.1 nM; in assay [3] it was 20 nM; in assay [4], 19.1 nM; in assay [5], 4.57 nM.
The corresponding values for `O=C(O[C@H]1CN2CCC1CC2)N1CCc2ccccc2[C@@H]1c1ccccc1` [SOLIFENACIN] are 129 nM, 120 nM, 13.2 nM, 43.7 nM and 51.3 nM.
Taken in the same sequence, the figures for `c1ccc(C2(c3ccccc3)COC[C@@H](CO[C@H]3CN4CCC3CC4)O2)cc1` were 437 nM, 355 nM, 617 nM, 631 nM and 162 nM.

Source of the values: ChEMBL document CHEMBL4118068 (Eur J Med Chem, 2017).
